Values of other authors, collected in publication PMC3212850 (ACS Medicinal Chemistry Letters, 2011).

Tested on: cell lines

Substance: apratoxin B
- activity relative to apratoxin A: reduces activity
